Legend:
human orexin 1 receptor [1] = target: T1, human orexin 1 receptor (Homo sapiens, UniProt O43613); test: Radioligand binding assay ([125I]orexin A competition), human orexin 1 receptor; conditions: radioligand [125I]orexin A instead of [3H]-SB649868; read-out: Binding hOx1R Kd
T1 construct: expressed in transfected cells
T1 sequence (O43613 1-425): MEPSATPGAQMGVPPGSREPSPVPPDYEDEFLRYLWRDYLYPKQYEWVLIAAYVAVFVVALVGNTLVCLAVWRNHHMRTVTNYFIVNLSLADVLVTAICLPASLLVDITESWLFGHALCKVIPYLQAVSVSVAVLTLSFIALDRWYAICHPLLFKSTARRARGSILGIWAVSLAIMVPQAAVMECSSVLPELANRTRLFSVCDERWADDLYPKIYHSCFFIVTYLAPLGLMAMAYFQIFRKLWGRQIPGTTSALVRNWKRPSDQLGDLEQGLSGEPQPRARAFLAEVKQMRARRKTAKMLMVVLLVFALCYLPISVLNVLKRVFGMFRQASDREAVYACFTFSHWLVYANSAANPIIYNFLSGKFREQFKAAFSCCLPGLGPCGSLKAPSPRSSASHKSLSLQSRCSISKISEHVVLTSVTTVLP

human orexin 2 receptor [2] = target: T2, human orexin 2 receptor (Homo sapiens, UniProt O43614); test: Radioligand binding assay ([125I]orexin A competition), human orexin 2 receptor; conditions: radioligand [125I]orexin A instead of [3H]-SB649868; read-out: Binding hOx2R Kd
T2 construct: expressed in transfected cells
T2 sequence (O43614 1-444): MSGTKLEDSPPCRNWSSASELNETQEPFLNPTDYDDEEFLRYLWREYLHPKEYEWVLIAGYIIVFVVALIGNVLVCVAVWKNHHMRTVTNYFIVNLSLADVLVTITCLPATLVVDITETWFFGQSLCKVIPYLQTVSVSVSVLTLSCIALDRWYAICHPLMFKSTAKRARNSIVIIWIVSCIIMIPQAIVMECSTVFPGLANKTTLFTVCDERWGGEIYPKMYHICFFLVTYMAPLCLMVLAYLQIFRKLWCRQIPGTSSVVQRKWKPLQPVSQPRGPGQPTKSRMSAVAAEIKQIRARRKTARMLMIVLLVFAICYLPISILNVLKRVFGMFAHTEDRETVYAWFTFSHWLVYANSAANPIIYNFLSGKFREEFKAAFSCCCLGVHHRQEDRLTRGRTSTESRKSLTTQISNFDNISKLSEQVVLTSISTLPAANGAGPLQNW

human orexin 1 receptor [3] = target: T1, human orexin 1 receptor; test: Calcium accumulation in cells (FLIPR), antagonism of orexin A, human orexin 1 receptor; assay type: cell-based; conditions: for Ki: calcium accumulation, antagonism of orexin A, Cheng-Prusoff corrected, read-out: FLIPR hOx1R Ki; for inhibition at 10 µM: measured at a concentration of 10 μM of compound, read-out: FLIPR hOx1R % inhibition
human orexin 2 receptor [4] = target: T2, human orexin 2 receptor; test: Calcium accumulation in cells (FLIPR), antagonism of orexin A, human orexin 2 receptor; assay type: cell-based; conditions: calcium accumulation, antagonism of orexin A, Cheng-Prusoff corrected; read-out: FLIPR hOx2R Ki
human orexin 2 receptor [5] = target: T2, human orexin 2 receptor; test: Radioligand binding assay ([3H]-SB649868 competition), human orexin 2 receptor; conditions: radioligand [3H]-SB649868; read-out: Binding hOx2R Kd
Outline: (§1)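 Competition binding against roughly 1 nM [3H]-SB649868, run in triplicate for 1 h at room temperature on CHO or HEK membranes bearing human receptor (10 mM HEPES pH 7.5, 0.5% BSA, 5 mM MgCl2, 1 mM CaCl2, 0.05% tween). Bound radioactivity after vacuum filtration; almorexant 10 μM for non-specific binding; expressed as Kd.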

human orexin 1 receptor [6] = target: T1, human orexin 1 receptor; test: Radioligand binding assay ([3H]-SB649868 competition), human orexin 1 receptor; conditions: radioligand [3H]-SB649868; read-out: Binding hOx1R Kd
Outline: as §1

SMILES	Kd (human orexin 1 receptor [1]) [nM]	Kd (human orexin 2 receptor [2]) [nM]	Ki (human orexin 1 receptor [3]) [nM]	Ki (human orexin 2 receptor [4]) [nM]	Kd (human orexin 2 receptor [5]) [nM]	Kd (human orexin 1 receptor [6]) [nM]	inhibition at 10 µM (human orexin 1 receptor [3]) [%]
O=C1N(Cc2cccc3ccccc23)CCC12CCN(c1nc3ccccc3[nH]1)CC2 [Example 3.7, 8-(1H-Benzo[d]imidazol-2-yl)-2-(naphthalen-1-ylmethyl)-2,8-diazaspiro[4.5]decan-1-one]	> 10000	1920	–	–	–	–	–
O=C1N(Cc2cccc3ccccc23)CCC12CCN(c1cnc3ccccc3n1)CC2 [Example 3.11, 2-(Naphthalen-1-ylmethyl)-8-(quinoxalin-2-yl)-2,8-diazaspiro[4.5]decan-1-one]	6360	414	1070	195	–	–	–
N#Cc1ccnc(N2CCC3(CCC(=O)N3Cc3cccc4[nH]ccc34)CC2)c1 [Example 8.4, 2-(1-((1H-Indol-4-yl)methyl)-2-oxo-1,8-diazaspiro[4.5]decan-8-yl)isonicotinonitrile]	–	–	–	45	348	> 10000	36
Cc1ccc(C)c(CN2C(=O)CCC23CCN(c2cnc4ccccc4n2)CC3)c1 [Example 8.5, 1-(2,5-Dimethylbenzyl)-8-(quinoxalin-2-yl)-1,8-diazaspiro[4.5]decan-2-one]	–	–	100	7.6	77	81	–
Cc1ccc(C)c(CN2C(=O)CCC23CCN(c2nc(C)cc(C)n2)CC3)c1 [Example 8.6, 1-(2,5-Dimethylbenzyl)-8-(4,6-dimethylpyrimidin-2-yl)-1,8-diazaspiro[4.5]decan-2-one]	–	–	2780	10	153	4920	–
Cc1ccc(C)c(CN2C(=O)COCC23CCN(c2cnc4ccccc4n2)CC3)c1 [Example 8.7, 1-(2,5-Dimethylbenzyl)-9-(quinoxalin-2-yl)-4-oxa-1,9-diazaspiro[5.5]undecan-2-one]	–	–	274	24	102	431	–
O=C1COCC2(CCN(c3cnc4ccccc4n3)CC2)N1Cc1cccc2[nH]ccc12 [Example 8.9, 1-((1H-Indol-4-yl)methyl)-9-(quinoxalin-2-yl)-4-oxa-1,9-diazaspiro[5.5]undecan-2-one]	–	–	320	29	136	429	–
O=C1COCC2(CCN(c3cnc4ccccc4n3)CC2)N1Cc1cccc(-c2ccccn2)c1 [Example 8.11, 1-(3-(Pyridin-2-yl)benzyl)-9-(quinoxalin-2-yl)-4-oxa-1,9-diazaspiro[5.5]undecan-2-one]	–	–	53	783	4540	53	–
Cc1ccc(C)c(CN2C(=O)COCC23CCN(c2nc(C)cc(C)n2)CC3)c1 [Example 8.15, 1-(2,5-Dimethylbenzyl)-9-(4,6-dimethylpyrimidin-2-yl)-4-oxa-1,9-diazaspiro[5.5]undecan-2-one]	–	–	–	28	165	> 10000	15
Cc1ccc(C)c(CN2C(=O)OCC23CCN(c2cnc4ccccc4n2)CC3)c1 [Example 8.20, 1-(2,5-Dimethylbenzyl)-8-(quinoxalin-2-yl)-3-oxa-1,8-diazaspiro[4.5]decan-2-one]	–	–	141	14	152	171	–
O=C1OCC2(CCN(c3cnc4ccccc4n3)CC2)N1Cc1cccc2[nH]ccc12 [Example 8.22, 1-((1H-Indol-4-yl)methyl)-8-(quinoxalin-2-yl)-3-oxa-1,8-diazaspiro[4.5]decan-2-one]	–	–	645	38	290	986	–
